The values that follow are results of earlier work, collected in patent US8067367B2, “Methods of increasing platelet and hematopoietic stem cell production” (Janssen Pharmaceutica, N.V., priority 2002, dated 2011).

One data set relates to CD34+ stem cells. Conditions: rhTPO with G-CSF; pilot study.
For the next data set, the system named is CD34+ cells. The settings on record: normal volunteers.
Data set [1] deals with HSCs in adult bone marrow. The settings on record: exogenously added TPO; after bone marrow transplantation.
[2] abbreviates: single dose of TPO, cancer patients.

Regarding Thrombopoietin [TPO], the “mobilization and apheresis yields of CD34+ stem cells in response to G-CSF” value in the data set on CD34+ stem cells is “able to enhance the mobilization and apheresis yields of CD34+ stem cells”. The “increase in circulating CD34+ cells” value in the data set on circulating CD34+ cells (3-7 days after a single dose of TPO, cancer patients with otherwise normal hematopoiesis) is listed as 6 fold. For the same substance, in the data set on circulating CD34+ cells (setting [2]), the “increase of committed megakaryocytic subfraction (CD34+CD41+CD14−)” value was around 15 fold and the “increase of stem cell enriched subfraction (CD34+ Thy+Lin−)” value is around 9 fold. The “CD34+ cells in the peripheral blood” value in the data set on CD34+ cells is given as 16×10^3 cells/ml. The “HSC expansion defect in tpo−/− mice” value in data set [1] is listed as “rescued this defect”.
